The values below come from US20210106566A1, “PHARMACEUTICAL COMPOSITION FOR TREATING AND/OR PREVENTING PERIPHERAL NEUROPATHY OR SPINAL CORD INJURY” (NATIONAL UNIVERSITY CORPORATION NAGOYA UNIVERSITY, priority 2015, published 2021).

This test concerns Bdnf, Ngf, Ntf4, Ntrk1, Ntrk2, Map2, Mapt, and Gap43. Briefly: Severely crushed spinal cord model mice: mRNA in spinal cord segments. It is filed as in vivo, mouse. As to conditions: spinal cord segment distal to the damaged area, 28 days after surgery, versus control group. From the text: Severely crushed spinal cord model mice were produced according to the “Method of producing severely crushed spinal cord model mice” as described in Example 8. Spinal cords were isolated from four mice in the zonisamide administration group and four mice in the control group 28 days after surgery and the segment of the damaged area with a length of 5 mm and the segment with a length of 5 mm distal to the damaged area were collected (FIG. 16). Total RNA was isolated using Trizol (Thermo Fisher Scientific) from each spinal cord segment with a length of 5 mm. Single-stranded cDNA was synthesized using ReverTra Ace (Toyobo). The mRNA expression levels of neurotrophic factors, Bdnf, Ngf, Ntf4, Ntrk1, Ntrk2, Map2, Mapt, and Gap43 were quantified using LightCycler 480 Real-Time PCR (Roche) and SYBR Green (Takara) (FIGS. 17, 18, 19, 20, 21, 22, 23, and 24). The mRNA levels were normalized with the expression level of GAPDH.

On to `NS(=O)(=O)Cc1noc2ccccc12` [Zonisamide, 3-sulfamoylmethyl-1,2-benzisoxazole], for which the “expression level of MAP2 gene” value was “significantly increased”, the “expression level of NGF” value was “seemed to be increased” and the “expression level of Tau gene” value is listed as “significantly increased”.
